Reference: patent US8802597B2, “Herbicidal pyrimidines” (E I du Pont de Nemours and Company, priority 2003, dated 2014)
Where two headings read alike, the source gives them in different places.

Experiments:
Type in all cases: in vivo
[1] = system: Surinam grass (Brachiaria decumbens); assay: Test B pre/postemergence; settings: Urochloa decumbens; for pest or weed control at 125 g/ha: 125 g ai/ha; for pest or weed control at 62 g/ha: 62 g ai/ha
Outline: (§1)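 Visual rating, 0 (no effect) to 100 (complete control) versus controls, taken 13–15 days after treatment in greenhouse. Compounds formulated in non-phytotoxic solvent plus surfactant; pre: sprayed after seeding; post: plants at 1- to 4-leaf stage, 2–18 cm.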

[2] = system: barnyardgrass (Echinochloa crus-galli); assay: Test B pre/postemergence; settings: Echinochloa crus-galli, post-emergence, Postemergence, scale 0 to 100 (0 no effect, 100 complete control), read-out: Barnyardgrass plant response rating
Outline: as §1

[3] = system: cocklebur (Xanthium strumarium); assay: Test B pre/postemergence; settings: Xanthium strumarium; for pest or weed control at 62 g/ha: 62 g ai/ha; for pest or weed control at 125 g/ha: 125 g ai/ha
Outline: as §1

corn (Zea mays) = assay: Test B pre/postemergence; settings: Zea mays
Outline: as §1

[4] = system: crabgrass (Digitaria sanguinalis); assay: Test B pre/postemergence; settings: Digitaria sanguinalis; for pest or weed control at 62 g/ha: 62 g ai/ha; for pest or weed control at 125 g/ha: 125 g ai/ha
Outline: as §1

[5] = system: giant foxtail (Setaria faberii); assay: Test B pre/postemergence; settings: Setaria faberi; for pest or weed control at 125 g/ha: 125 g ai/ha; for pest or weed control at 62 g/ha: 62 g ai/ha
Outline: as §1

[6] = system: lambsquarters (Chenopodium album); assay: Test B pre/postemergence; settings: Chenopodium album, post-emergence, Postemergence, scale 0 to 100 (0 no effect, 100 complete control), read-out: Lambsquarters plant response rating
Outline: as §1

[7] = system: morningglory (Ipomoea coccinea); assay: Test B pre/postemergence; settings: Ipomoea; for pest or weed control at 62 g/ha: 62 g ai/ha; for pest or weed control at 125 g/ha: 125 g ai/ha
Outline: as §1

[8] = system: pigweed (Amaranthus retroflexus); assay: Test B pre/postemergence; settings: Amaranthus retroflexus, post-emergence, Postemergence, scale 0 to 100 (0 no effect, 100 complete control), read-out: Pigweed plant response rating
Outline: as §1

[9] = system: velvetleaf (Abutilon theophrasti); assay: Test B pre/postemergence; settings: Abutilon theophrasti; for pest or weed control at 62 g/ha: 62 g ai/ha; for pest or weed control at 125 g/ha: 125 g ai/ha
Outline: as §1

[10] = system: wheat (Triticum aestivum); assay: Test B pre/postemergence; settings: Triticum aestivum, scale 0 to 100 (0 no effect, 100 complete control); for plant injury at 62 g/ha: 62 g ai/ha; for plant injury at 125 g/ha: 125 g ai/ha
Outline: as §1

[11] = system: blackgrass (Alopecurus myosuroides); assay: Test B postemergence; settings: Alopecurus myosuroides, post-emergence, 62 g ai/ha, scale 0 to 100 (0 no effect, 100 complete control), read-out: Blackgrass plant response rating
Outline: as §1

wild oat (Avena fatua) = assay: Test B postemergence; settings: Avena fatua, post-emergence, scale 0 to 100 (0 no effect, 100 complete control), read-out: Oat, Wild plant response rating
Outline: as §1

[12] = system: barnyardgrass (Echinochloa crus-galli); assay: Test B flooded paddy test; settings: Echinochloa crus-galli, Flood, scale 0 to 100, read-out: Plant response rating, Barnyardgrass
Outline: (§2)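 Rice, umbrella sedge, duck salad and barnyardgrass grown to 2-leaf stage under flooded paddy conditions and treated with formulated test chemicals. Kept in greenhouse 13–15 days, then visually rated against untreated controls on a 0–100 scale (0 no effect, 100 complete control).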

[13] = system: duck salad (Heteranthera limosa); assay: Test B flooded paddy test; settings: Heteranthera limosa, Flood, scale 0 to 100, read-out: Plant response rating, Ducksalad
Outline: as §2

rice (Oryza sativa) = assay: Test B flooded paddy test; settings: Oryza sativa, Flood, scale 0 to 100, read-out: Plant response rating, Rice
Outline: as §2

[14] = system: umbrella sedge (Cyperus difformis); assay: Test B flooded paddy test; settings: Cyperus difformis, Flood, scale 0 to 100, read-out: Plant response rating, Sedge, Umbrella
Outline: as §2

[15] = post-emergence, Postemergence, scale 0 to 100 (0 no effect, 100 complete control), read-out: Surinam Grass plant response rating
[16] = post-emergence, Postemergence, scale 0 to 100 (0 no effect, 100 complete control), read-out: Cocklebur plant response rating
[17] = post-emergence, Postemergence, scale 0 to 100 (0 no effect, 100 complete control), read-out: Crabgrass plant response rating
[18] = post-emergence, Postemergence, scale 0 to 100 (0 no effect, 100 complete control), read-out: Foxtail, Giant plant response rating
[19] = post-emergence, Postemergence, scale 0 to 100 (0 no effect, 100 complete control), read-out: Morningglory plant response rating
[20] = post-emergence, Postemergence, scale 0 to 100 (0 no effect, 100 complete control), read-out: Velvetleaf plant response rating
[21] = post-emergence, Postemergence, read-out: Wheat plant response rating
[22] = pre-emergence, Preemergence, read-out: Plant response rating, Wheat

## Nc1nc(-c2ccc(Br)cc2)nc(C(=O)O)c1Cl [Compound 95, 6-amino-2-(4-bromophenyl)-5-chloro-4-pyrimidinecarboxylic acid]
[1]; [15]
  pest or weed control at 125 g/ha: 90%
  pest or weed control at 62 g/ha: 80%
[1]; pre-emergence, Preemergence, scale 0 to 100 (0 no effect, 100 complete control), read-out: Plant response rating, Surinam Grass
  pest or weed control at 125 g/ha: 100%
[1]; pre-emergence, Preemergence, scale 0 to 100, 0 no effect, 100 complete control, read-out: Plant response rating, Surinam Grass
  pest or weed control at 62 g/ha: 50%
[2]; 62 g ai/ha
  pest or weed control at 62 g/ha: 90%
[2]; 125 g ai/ha
  pest or weed control at 125 g/ha: 90%
[3]; [16]
  pest or weed control at 62 g/ha: 90%
  pest or weed control at 125 g/ha: 90%
[3]; pre-emergence, Preemergence, scale 0 to 100, 0 no effect, 100 complete control, read-out: Plant response rating, Cocklebur
  pest or weed control at 62 g/ha: 90%
[3]; pre-emergence, Preemergence, scale 0 to 100 (0 no effect, 100 complete control), read-out: Plant response rating, Cocklebur
  pest or weed control at 125 g/ha: 100%
Corn (Zea mays); post-emergence, Postemergence, 62 g ai/ha, scale 0 to 100 (0 no effect, 100 complete control), read-out: Corn plant response rating
  plant injury at 62 g/ha: 80%
Corn (Zea mays); post-emergence, Postemergence, 125 g ai/ha, scale 0 to 100 (0 no effect, 100 complete control), read-out: Corn plant response rating
  plant injury at 125 g/ha: 90%
Corn (Zea mays); pre-emergence, Preemergence, 62 g ai/ha, scale 0 to 100, 0 no effect, 100 complete control
  Corn plant response rating (crop injury, 0 = no effect, 100 = complete kill) at 62 g/ha: 40%
Corn (Zea mays); pre-emergence, Preemergence, 125 g ai/ha, scale 0 to 100 (0 no effect, 100 complete control)
  Corn plant response rating (crop injury, 0 = no effect, 100 = complete kill) at 125 g/ha: 80%
[4]; [17]
  pest or weed control at 62 g/ha: 80%
  pest or weed control at 125 g/ha: 80%
[4]; pre-emergence, Preemergence, scale 0 to 100, 0 no effect, 100 complete control, read-out: Plant response rating, Crabgrass
  pest or weed control at 62 g/ha: 80%
[4]; pre-emergence, Preemergence, scale 0 to 100 (0 no effect, 100 complete control), read-out: Plant response rating, Crabgrass
  pest or weed control at 125 g/ha: 100%
[5]; [18]
  pest or weed control at 125 g/ha: 80%
  pest or weed control at 62 g/ha: 80%
[5]; pre-emergence, Preemergence, scale 0 to 100 (0 no effect, 100 complete control), read-out: Plant response rating, Foxtail, Giant
  pest or weed control at 125 g/ha: 90%
[5]; pre-emergence, Preemergence, scale 0 to 100, 0 no effect, 100 complete control, read-out: Plant response rating, Foxtail, Giant
  pest or weed control at 62 g/ha: 50%
[6]; 62 g ai/ha
  pest or weed control at 62 g/ha: 100%
[6]; 125 g ai/ha
  pest or weed control at 125 g/ha: 100%
[7]; [19]
  pest or weed control at 62 g/ha: 90%
  pest or weed control at 125 g/ha: 100%
[7]; pre-emergence, Preemergence, scale 0 to 100, 0 no effect, 100 complete control, read-out: Plant response rating, Morningglory
  pest or weed control at 62 g/ha: 30%
[7]; pre-emergence, Preemergence, scale 0 to 100 (0 no effect, 100 complete control), read-out: Plant response rating, Morningglory
  pest or weed control at 125 g/ha: 60%
[8]; 62 g ai/ha
  pest or weed control at 62 g/ha: 100%
[8]; 125 g ai/ha
  pest or weed control at 125 g/ha: 100%
[9]; [20]
  pest or weed control at 62 g/ha: 100%
  pest or weed control at 125 g/ha: 100%
[9]; pre-emergence, Preemergence, scale 0 to 100, 0 no effect, 100 complete control, read-out: Plant response rating, Velvetleaf
  pest or weed control at 62 g/ha: 80%
[9]; pre-emergence, Preemergence, scale 0 to 100 (0 no effect, 100 complete control), read-out: Plant response rating, Velvetleaf
  pest or weed control at 125 g/ha: 100%
[10]; [21]
  plant injury at 62 g/ha: 40%
  plant injury at 125 g/ha: 50%
[10]; [22]
  plant injury at 62 g/ha: 70%
  plant injury at 125 g/ha: 80%
[11]
  pest or weed control at 62 g/ha: 60%
Wild oat (Avena fatua); 62 g ai/ha
  pest or weed control at 62 g/ha: 30%
Wild oat (Avena fatua); 125 g ai/ha
  pest or weed control at 125 g/ha: 60%
[12]; 125 g ai/ha
  pest or weed control at 125 g/ha: 0%
[12]; 500 g ai/ha
  pest or weed control at 500 g/ha: 30%
[13]; 125 g ai/ha
  pest or weed control at 125 g/ha: 90%
[13]; 500 g ai/ha
  pest or weed control at 500 g/ha: 100%
Rice (Oryza sativa); 125 g ai/ha
  plant injury at 125 g/ha: 0%
Rice (Oryza sativa); 500 g ai/ha
  plant injury at 500 g/ha: 40%
[14]; 125 g ai/ha
  pest or weed control at 125 g/ha: 90%
[14]; 500 g ai/ha
  pest or weed control at 500 g/ha: 90%
